Results taken from article PMC9519552, “Activation of the human insulin receptor by non-insulin-related peptides” (Nature Communications, 2022).
Positions of bridges follow the written chain, without caps; N, C: chain ends. Non-standard residues stand in square brackets, D forms with d. Residues, ends and D or L forms follow the SMILES beside them. *: point of attachment. X1 = NCc1ccc(CC(=O)*)cc1; Aib = CC(C)(N)C(=O)O

Legend:
[1] = target: T1, human IR-A (holoIR-A) (Homo sapiens, UniProt P06213); assay: holoIR-A competitive radioligand binding assay (scintillation proximity assay)
T1 construct: expressed in transfected cells; host or cells: HEK293 (ATCC #CRL-1573), stably transfected; membrane preparation
T1 sequence (P06213 28-1370 isoform P06213-2 limits assumed): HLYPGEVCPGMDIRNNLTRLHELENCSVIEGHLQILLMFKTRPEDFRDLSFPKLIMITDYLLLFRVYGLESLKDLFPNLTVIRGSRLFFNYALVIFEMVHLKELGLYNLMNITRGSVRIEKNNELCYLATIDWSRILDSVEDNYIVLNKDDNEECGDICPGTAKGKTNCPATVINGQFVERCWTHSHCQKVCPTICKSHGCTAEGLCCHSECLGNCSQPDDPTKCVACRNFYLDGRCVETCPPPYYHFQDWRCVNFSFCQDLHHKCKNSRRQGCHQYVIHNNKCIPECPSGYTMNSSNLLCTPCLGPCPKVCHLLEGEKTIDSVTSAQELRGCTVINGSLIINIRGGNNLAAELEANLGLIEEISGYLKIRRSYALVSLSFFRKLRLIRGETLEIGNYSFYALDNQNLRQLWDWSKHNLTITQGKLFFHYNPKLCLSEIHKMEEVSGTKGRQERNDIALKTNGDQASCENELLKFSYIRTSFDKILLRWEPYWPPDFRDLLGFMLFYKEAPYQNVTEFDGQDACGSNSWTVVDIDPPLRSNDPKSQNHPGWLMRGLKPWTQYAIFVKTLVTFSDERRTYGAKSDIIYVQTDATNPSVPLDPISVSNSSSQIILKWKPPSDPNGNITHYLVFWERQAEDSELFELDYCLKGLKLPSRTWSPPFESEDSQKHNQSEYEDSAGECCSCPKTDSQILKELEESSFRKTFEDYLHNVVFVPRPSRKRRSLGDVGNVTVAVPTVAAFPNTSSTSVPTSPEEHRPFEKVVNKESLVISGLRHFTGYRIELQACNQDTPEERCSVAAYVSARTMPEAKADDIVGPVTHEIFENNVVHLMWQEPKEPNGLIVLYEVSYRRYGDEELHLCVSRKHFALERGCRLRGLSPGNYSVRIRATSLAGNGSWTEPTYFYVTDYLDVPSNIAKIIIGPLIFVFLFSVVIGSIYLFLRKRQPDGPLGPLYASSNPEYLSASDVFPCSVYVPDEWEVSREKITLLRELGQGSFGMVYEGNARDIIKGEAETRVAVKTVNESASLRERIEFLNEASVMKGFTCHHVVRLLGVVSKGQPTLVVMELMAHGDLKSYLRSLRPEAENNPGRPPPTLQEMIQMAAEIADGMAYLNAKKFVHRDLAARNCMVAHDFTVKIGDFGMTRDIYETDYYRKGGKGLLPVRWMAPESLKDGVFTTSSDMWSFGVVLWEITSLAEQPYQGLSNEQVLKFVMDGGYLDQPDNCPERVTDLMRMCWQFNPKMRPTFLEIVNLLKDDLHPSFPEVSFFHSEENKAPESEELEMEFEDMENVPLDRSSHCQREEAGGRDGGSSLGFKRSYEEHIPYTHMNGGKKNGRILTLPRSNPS
T1 sequence (P06213 763-1382 partner limits assumed): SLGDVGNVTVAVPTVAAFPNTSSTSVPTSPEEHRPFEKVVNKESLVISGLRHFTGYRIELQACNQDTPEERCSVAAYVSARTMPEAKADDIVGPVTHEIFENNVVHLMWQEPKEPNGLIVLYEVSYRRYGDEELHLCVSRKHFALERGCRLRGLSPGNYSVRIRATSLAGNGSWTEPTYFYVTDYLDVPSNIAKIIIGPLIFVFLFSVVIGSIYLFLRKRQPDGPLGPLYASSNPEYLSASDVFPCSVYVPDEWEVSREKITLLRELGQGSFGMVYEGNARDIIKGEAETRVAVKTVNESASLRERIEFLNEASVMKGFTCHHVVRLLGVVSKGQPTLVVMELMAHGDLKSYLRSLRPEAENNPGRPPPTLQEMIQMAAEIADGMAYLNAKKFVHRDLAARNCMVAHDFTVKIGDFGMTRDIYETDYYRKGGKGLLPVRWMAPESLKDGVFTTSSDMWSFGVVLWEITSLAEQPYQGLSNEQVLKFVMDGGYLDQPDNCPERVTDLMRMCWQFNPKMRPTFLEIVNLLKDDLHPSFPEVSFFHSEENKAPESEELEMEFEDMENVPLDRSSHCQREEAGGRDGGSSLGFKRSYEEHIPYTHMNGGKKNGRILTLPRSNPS
Outline: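 Membranes from HEK293 cells stably expressing C9-tagged human IR-A were used in a WGA-bead SPA competition assay in 50 mM Tris-HCl pH 7.5, 150 mM NaCl, 0.1% fatty-acid-free BSA. Ten-point 3-fold dilutions were incubated 10 h at room temperature before scintillation counting. Percent specific inhibition was calculated after nonspecific-binding correction, from three independent runs.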

[2] = target: T2, human holoIR-A over-expressed in HEK293 cells (Homo sapiens, UniProt P06213); assay: holoIR-A auto-phosphorylation assay (ELISA); assay type: cell-based
T2 construct: expressed in transfected cells; host or cells: HEK293, stably transfected
T2 sequence (P06213 28-1370 isoform P06213-2 limits assumed): as the sequence (P06213 28-1370 isoform P06213-2 limits assumed) above
T2 sequence (P06213 763-1382 partner limits assumed): as the sequence (P06213 763-1382 partner limits assumed) above
Description: Phosphorylation was quantified using an ELISA technique. Ninety-six well, flat-bottom microplates (Greiner Bio-One) were pre-coated with 2 µg mL^−1 anti-C9 monoclonal antibody (Rho 1D4; University of British Columbia)[27] in 20 mM sodium carbonate, pH 9.6, at 4 °C for overnight prior to the assay. On the assay day, plates were washed 3× with 0.1% Tween in 50 mM Tris Buffer Saline, pH 7.5 (TBST), and then blocked for greater than 1 h at room temperature (RT) with 1% BSA (Sigma) in TBST.
Stably transfected HEK293 cells over-expressing human holoIR-A containing a C-terminal C9 epitope tag ([…]), were plated at 6 × 10^4 cells per well serum-starved using 0.1% BSA in DMEM (Gibco) for overnight at standard tissue culture condition. […] After a 15-min incubation in lysis buffer at 4 °C, the lysate was transferred to anti-C9 antibody coated capture plate (Rho 1D4; University of British Columbia)[27]. […] After a 1 h incubation at room temperature, the secondary antibody was removed by washing 3× with TBST. Signal detection occurred with the addition of TMB, an HRP substrate (Pierce). After 5–10 min, the reaction was stopped by adding an equal volume of 2 M H2SO4, and the absorbance readings at 450 nm (A450) were recorded using a Envision plate reader (PerkinElmer). Samples were tested in three independent assay runs on three different days.
Percent specific response (y-axis) was plotted versus the log concentration of compound (x-axis) using Prism Version 9.3.1 (GraphPad Software). Individual measurements are provided as Source Data.

[3] = tested on: [holoIR-A]-expressing IM-9 human lymphoblast cells; assay: holoIR-A accelerated dissociation assay of pre-bound 125I-insulin; assay type: binding; details: IM-9 cells, 1:40 dilution, 16 °C, 30 min; n = 3
Description: Ice-cold 15-25 pM ^125I-insulin solution was added to IM-9 cells and incubated at 4 °C for 2.5 h for pre-bound experiments. […] Following receptor and ^125I-insulin pre-bound, the mix was quickly centrifugated and supernatant was removed. The bound ^125I-insulin and IM-9 cells were then resuspended with 16 °C pre-equilibrated HBB, pH 7.6. The ^125I-ligand/IM-9 cell mixture was aliquoted to cold compounds at 1:40 ratio, respectively. The reactions were incubated at 16 °C for 30 min to allow dissociation of prebound ^125I-insulin and then harvested by centrifugation and aspiration of the supernatant. The radioactivity of cell pellets was determined by gamma counter (Perkin Elmer). Samples were tested in three independent assay runs on three different days. Individual measurements are provided as Source Data.

[4] = target: the molecule itself; assay: cryo-EM structure; IM459-complexed hIR-A^ecto, eluted with IM459 from an insulin-affinity column and purified by SEC in TBSA; focussed refinement to ca 5.0 Å

affinity for hIR (in words) ([1]; comparable to that of BHI) | Ki ([1]; primary peptide set, mean of 3 runs, read-out: IRA Binding Ki Mean) [nM] | EC50 ([2]; primary peptide set, mean of 3 runs, read-out: hIRA Phosph EC50 Mean) [nM] | hIRA Phosph EC50 Run 1 ([2]; primary peptide set, run 1) [nM] | hIRA Phosph EC50 Run 2 ([2]; primary peptide set, run 2) [nM] | weaker activity than BHI in an hIR autophosphorylation assay ([2]; relative to biosynthetic human insulin) [fold] | Molecule | effect on dissociation of pre-bound I125-insulin tracer from native membrane-expressed hIR (in words) [3] | binding result [4]
sub-nM | 0.206 | 7.36 | 6.534 | 8.090 | ~2.5 | CC[C@H](C)[C@H](NC(=O)[C@H](CCCCN)NC(=O)C(C)(C)NC(=O)[C@H](Cc1c[nH]c2ccccc12)NC(=O)[C@H](CCC(=O)O)NC(=O)[C@H](CCC(N)=O)NC(=O)[C@H](CCC(=O)O)NC(=O)[C@H](CC(C)C)NC(=O)[C@H](CO)NC(=O)Cc1ccc(CN)cc1)C(=O)N[C@@H](CCC(=O)O)C(=O)N[C@H]1CSSC[C@@H](C(=O)N2CCC[C@H]2C(=O)N2CCC[C@H]2C(=O)N[C@@H](CCCCN)C(=O)N[C@@H](CCCCN)C(=O)N[C@@H](C)C(=O)N[C@@H](Cc2ccc(OC)cc2)C(=O)N[C@@H](Cc2ccc(O)cc2)C(=O)N[C@@H](CCCCN)C(=O)N[C@@H](Cc2c[nH]c3ccccc23)C(=O)N[C@@H](Cc2ccccc2)C(=O)N[C@@H](CCC(=O)O)C(=O)N[C@@H](CCCNC(=N)N)C(=O)N[C@@H](CCC(N)=O)C(=O)N[C@@H](CC(C)C)C(=O)N[C@@H](CCCCN)C(N)=O)NC(=O)[C@H](CCCCN)NC(=O)CNC(=O)[C@H](Cc2ccc(O)cc2)NC(=O)[C@H](C(C)C)NC(=O)[C@H](CCC(=O)O)NC1=O [IM459] (X1-SLEQEW[Aib]KIECEVYGKCPPKKAY(Me)YKWFERQLK-NH2; disulfide 11-17) | decreases dissociation of the pre-bound insulin tracer | 
 |  |  |  |  |  | hIR-A^ecto (insulin receptor isoform A ectodomain, residues 1-914) (domain or fragment, human, UniProt P06213-2 28-941, looked up, written as one chain of the [αβ]2 dimer; also called hIR ectodomain) HLYPGEVCPGMDIRNNLTRLHELENCSVIEGHLQILLMFKTRPEDFRDLSFPKLIMITDYLLLFRVYGLESLKDLFPNLTVIRGSRLFFNYALVIFEMVHLKELGLYNLMNITRGSVRIEKNNELCYLATIDWSRILDSVEDNYIVLNKDDNEECGDICPGTAKGKTNCPATVINGQFVERCWTHSHCQKVCPTICKSHGCTAEGLCCHSECLGNCSQPDDPTKCVACRNFYLDGRCVETCPPPYYHFQDWRCVNFSFCQDLHHKCKNSRRQGCHQYVIHNNKCIPECPSGYTMNSSNLLCTPCLGPCPKVCHLLEGEKTIDSVTSAQELRGCTVINGSLIINIRGGNNLAAELEANLGLIEEISGYLKIRRSYALVSLSFFRKLRLIRGETLEIGNYSFYALDNQNLRQLWDWSKHNLTITQGKLFFHYNPKLCLSEIHKMEEVSGTKGRQERNDIALKTNGDQASCENELLKFSYIRTSFDKILLRWEPYWPPDFRDLLGFMLFYKEAPYQNVTEFDGQDACGSNSWTVVDIDPPLRSNDPKSQNHPGWLMRGLKPWTQYAIFVKTLVTFSDERRTYGAKSDIIYVQTDATNPSVPLDPISVSNSSSQIILKWKPPSDPNGNITHYLVFWERQAEDSELFELDYCLKGLKLPSRTWSPPFESEDSQKHNQSEYEDSAGECCSCPKTDSQILKELEESSFRKTFEDYLHNVVFVPRPSRKRRSLGDVGNVTVAVPTVAAFPNTSSTSVPTSPEEHRPFEKVVNKESLVISGLRHFTGYRIELQACNQDTPEERCSVAAYVSARTMPEAKADDIVGPVTHEIFENNVVHLMWQEPKEPNGLIVLYEVSYRRYGDEELHLCVSRKHFALERGCRLRGLSPGNYSVRIRATSLAGNGSWTEPTYFYVTDYLDVPSN |  | binds
